Data from ChEMBL document CHEMBL1201862, “PubChem BioAssay data set” (2004).
Activity calls are given as the source filed them.

Assays:
[1] = target: T1, Probable nicotinate-nucleotide adenylyltransferase (Staphylococcus aureus (strain N315), UniProt P65502); assay type: functional, Staphylococcus aureus subsp. aureus N315; conditions: read-out: IC50_Mean;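 for IC50 Mean: confirmatory dose-response retesting of NadD inhibitor hits first found in an ultra-high-throughput screen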
[2] = target: T1, Probable nicotinate-nucleotide adenylyltransferase; assay type: functional, Staphylococcus aureus subsp. aureus N315
Caspase-8 = Caspase-8 (Homo sapiens, UniProt Q14790); assay: caspase-8 inhibition counter-screen, dose response, selectivity assay for caspase-6 inhibitor project, biochemical, Z-IETD-R110 fluorescence, cherry-picked samples (AID 743294)
Chain of Caspase-8 (Q14790 217-374 limits assumed): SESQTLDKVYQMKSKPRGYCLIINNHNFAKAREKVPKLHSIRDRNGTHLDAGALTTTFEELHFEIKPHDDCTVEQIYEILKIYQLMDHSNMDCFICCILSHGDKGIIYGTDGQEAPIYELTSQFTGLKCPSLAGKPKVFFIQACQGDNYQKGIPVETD
Chain of Caspase-8 (Q14790 385-479 limits assumed): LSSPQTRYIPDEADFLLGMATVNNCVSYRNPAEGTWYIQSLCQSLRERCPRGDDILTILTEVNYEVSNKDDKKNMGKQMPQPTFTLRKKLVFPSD

[3] = target: T2, Tyrosine-protein phosphatase non-receptor type 11 (Homo sapiens, UniProt Q06124); assay: SHP2 phosphatase inhibition, dose response, selectivity assay for STEP inhibitor project, biochemical (AID 602367); assay type: functional; conditions: read-out: IC50_Mean
T2 sequence (Q06124 whole entry): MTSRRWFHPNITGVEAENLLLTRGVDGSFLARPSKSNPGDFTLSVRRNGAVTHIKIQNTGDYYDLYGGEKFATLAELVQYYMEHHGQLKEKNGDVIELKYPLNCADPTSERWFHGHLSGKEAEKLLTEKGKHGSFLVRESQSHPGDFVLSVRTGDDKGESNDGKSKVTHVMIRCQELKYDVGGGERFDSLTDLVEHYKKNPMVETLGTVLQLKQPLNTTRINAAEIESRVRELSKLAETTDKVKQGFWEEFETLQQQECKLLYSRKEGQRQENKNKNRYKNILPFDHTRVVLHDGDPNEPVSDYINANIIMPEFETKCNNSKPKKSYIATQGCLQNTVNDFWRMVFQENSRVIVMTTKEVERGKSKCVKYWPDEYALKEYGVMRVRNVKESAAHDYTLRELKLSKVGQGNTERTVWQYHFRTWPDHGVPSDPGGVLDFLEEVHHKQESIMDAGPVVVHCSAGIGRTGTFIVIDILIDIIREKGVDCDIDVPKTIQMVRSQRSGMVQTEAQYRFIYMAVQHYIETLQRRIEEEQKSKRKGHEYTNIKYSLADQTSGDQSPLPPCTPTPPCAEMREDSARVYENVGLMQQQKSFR

[4] = target: T3, Low molecular weight phosphotyrosine protein phosphatase (Homo sapiens, UniProt P24666); assay type: functional; conditions: read-out: IC50_Mean
T3 sequence (P24666 whole entry): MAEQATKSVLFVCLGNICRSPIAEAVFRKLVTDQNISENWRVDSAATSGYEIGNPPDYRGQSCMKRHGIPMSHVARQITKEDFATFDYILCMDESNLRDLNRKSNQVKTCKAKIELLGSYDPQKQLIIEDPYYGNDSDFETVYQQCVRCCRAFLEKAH

HEK293 [5] = assay: cells; assay type: functional, cell-based; conditions: Homo sapiens
HEK293 [6] = assay: cells; assay type: functional, cell-based; conditions: Homo sapiens; remark: listed apart in the source
Caspase-6 = target: T4, Caspase-6 (Homo sapiens, UniProt P55212); assay: human caspase-6 inhibitors, dose response, biochemical, VEID-R110 fluorescence, cherry-pick (AID 720632)
T4 sequence (P55212 whole entry): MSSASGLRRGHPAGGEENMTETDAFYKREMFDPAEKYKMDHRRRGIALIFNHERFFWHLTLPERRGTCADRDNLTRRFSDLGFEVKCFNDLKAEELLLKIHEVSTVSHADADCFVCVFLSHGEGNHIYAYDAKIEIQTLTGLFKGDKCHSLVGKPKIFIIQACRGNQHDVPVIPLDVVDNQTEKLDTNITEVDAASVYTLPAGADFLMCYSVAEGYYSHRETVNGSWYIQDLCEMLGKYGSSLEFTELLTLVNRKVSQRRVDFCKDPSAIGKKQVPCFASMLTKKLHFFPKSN

[7] = target: T5, Small ubiquitin-related modifier 1 (Homo sapiens, UniProt P63165); assay: inhibitors of SUMO1 partner interactions, dose response, biochemical, FRET (AID 624383); assay type: functional; conditions: read-out: IC50_Mean
T5 sequence (P63165 whole entry): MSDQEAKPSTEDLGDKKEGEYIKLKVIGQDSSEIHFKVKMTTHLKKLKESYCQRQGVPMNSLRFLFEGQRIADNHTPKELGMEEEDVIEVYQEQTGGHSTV

[8] = target: T3, Low molecular weight phosphotyrosine protein phosphatase; assay type: functional; conditions: read-out: IC50_Mean; remark: listed apart in the source
[9] = target: T6, Carboxy-terminal domain RNA polymerase II polypeptide A small phosphatase 1 (Homo sapiens, UniProt Q9GZU7); assay: inhibitors of CTDSP1, concentration-response testing, biochemical assay, absorbance-based, actives from ultra-high-throughput screening (AID 540297); assay type: functional
T6 sequence (Q9GZU7 whole entry): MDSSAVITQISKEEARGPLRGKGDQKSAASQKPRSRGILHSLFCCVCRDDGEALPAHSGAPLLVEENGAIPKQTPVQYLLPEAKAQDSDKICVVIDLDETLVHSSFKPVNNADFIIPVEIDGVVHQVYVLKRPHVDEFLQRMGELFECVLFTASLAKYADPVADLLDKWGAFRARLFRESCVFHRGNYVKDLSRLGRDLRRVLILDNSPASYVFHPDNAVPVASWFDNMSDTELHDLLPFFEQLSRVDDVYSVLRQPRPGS

[10] = target: T5, Small ubiquitin-related modifier 1; assay: inhibitors of SUMO1 peptide binding, dose response, biochemical, fluorescence polarization, uHTS hits (AID 624382); assay type: functional; conditions: read-out: IC50_Mean
[11] = target: T7, Tyrosine-protein phosphatase non-receptor type 5 (Homo sapiens, UniProt P54829); assay: STEP phosphatase inhibitors, confirmation, biochemical, fluorescence intensity, uHTS hits (AID 602372); assay type: functional; conditions: read-out: IC50_Mean
T7 sequence (P54829 whole entry): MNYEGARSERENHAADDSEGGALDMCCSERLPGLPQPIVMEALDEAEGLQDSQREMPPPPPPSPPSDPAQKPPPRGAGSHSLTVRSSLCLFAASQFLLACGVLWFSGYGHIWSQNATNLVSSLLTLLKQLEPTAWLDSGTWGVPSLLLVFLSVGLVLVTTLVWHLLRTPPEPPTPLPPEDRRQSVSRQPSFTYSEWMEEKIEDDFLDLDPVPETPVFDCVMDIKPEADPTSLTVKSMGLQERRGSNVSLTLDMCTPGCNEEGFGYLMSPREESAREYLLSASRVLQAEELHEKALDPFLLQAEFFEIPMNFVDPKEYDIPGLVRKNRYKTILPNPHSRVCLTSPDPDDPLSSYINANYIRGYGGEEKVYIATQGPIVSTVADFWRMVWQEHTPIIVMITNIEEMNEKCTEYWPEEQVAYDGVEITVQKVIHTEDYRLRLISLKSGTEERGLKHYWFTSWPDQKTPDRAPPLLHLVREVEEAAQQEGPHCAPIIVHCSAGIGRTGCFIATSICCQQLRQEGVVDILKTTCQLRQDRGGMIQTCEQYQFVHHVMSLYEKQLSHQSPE

[12] = target: Nucleotide-binding oligomerization domain-containing protein 2 (Homo sapiens, UniProt Q9HC29); assay: NOD2 signaling inhibitors, cell-based, luminescence, uHTS, HEK293 (AID 1566); assay type: functional
Chain of Nucleotide-binding oligomerization domain-containing protein 2 (Q9HC29 whole entry, the tested form may be a part): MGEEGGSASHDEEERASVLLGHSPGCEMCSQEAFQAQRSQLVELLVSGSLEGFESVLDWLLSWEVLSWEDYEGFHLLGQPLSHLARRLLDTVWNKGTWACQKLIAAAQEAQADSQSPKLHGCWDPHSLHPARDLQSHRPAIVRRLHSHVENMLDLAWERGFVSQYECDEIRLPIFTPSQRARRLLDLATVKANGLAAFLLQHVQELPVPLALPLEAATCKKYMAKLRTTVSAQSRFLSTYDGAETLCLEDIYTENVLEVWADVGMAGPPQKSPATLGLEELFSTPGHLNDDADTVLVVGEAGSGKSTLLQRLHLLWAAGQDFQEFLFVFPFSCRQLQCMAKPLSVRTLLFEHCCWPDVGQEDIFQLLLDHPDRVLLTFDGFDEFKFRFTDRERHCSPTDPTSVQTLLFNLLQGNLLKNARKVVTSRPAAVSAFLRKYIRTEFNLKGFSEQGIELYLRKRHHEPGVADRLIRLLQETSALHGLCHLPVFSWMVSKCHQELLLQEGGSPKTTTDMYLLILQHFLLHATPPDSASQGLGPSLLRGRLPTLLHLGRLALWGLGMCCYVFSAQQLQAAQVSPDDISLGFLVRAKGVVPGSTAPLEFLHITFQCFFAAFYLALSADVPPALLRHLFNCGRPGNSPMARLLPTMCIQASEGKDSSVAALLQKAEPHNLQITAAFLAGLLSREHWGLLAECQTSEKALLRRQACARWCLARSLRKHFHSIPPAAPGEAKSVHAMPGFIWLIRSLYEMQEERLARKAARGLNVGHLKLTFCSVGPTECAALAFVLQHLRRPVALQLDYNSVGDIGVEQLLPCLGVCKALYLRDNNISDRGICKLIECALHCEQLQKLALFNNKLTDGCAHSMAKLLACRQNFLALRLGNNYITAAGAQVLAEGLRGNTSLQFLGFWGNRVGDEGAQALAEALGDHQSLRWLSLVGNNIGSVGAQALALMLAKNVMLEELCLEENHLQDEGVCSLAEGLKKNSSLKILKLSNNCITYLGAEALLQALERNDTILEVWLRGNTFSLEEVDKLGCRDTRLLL

[13] = target: Dual specificity protein phosphatase 3 (Homo sapiens, UniProt P51452); assay: VHR phosphatase inhibition, dose response, selectivity assay for STEP inhibitor project, biochemical (AID 602374); assay type: functional; conditions: read-out: IC50_Mean
Chain of Dual specificity protein phosphatase 3 (P51452 whole entry): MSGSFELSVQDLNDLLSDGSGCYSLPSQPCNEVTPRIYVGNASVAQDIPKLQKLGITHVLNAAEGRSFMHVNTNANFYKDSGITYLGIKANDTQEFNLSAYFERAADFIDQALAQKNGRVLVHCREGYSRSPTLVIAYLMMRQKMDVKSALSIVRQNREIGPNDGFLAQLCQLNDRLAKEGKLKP

HEK293 [14] = assay: NOD2 signaling inhibitors in MDP-stimulated cells, cell-based, uHTS, luminescence (AID 2001); assay type: functional; conditions: Homo sapiens
HEK293 [15] = assay: NOD1 signaling inhibitors, primary screen, cell-based, luminescence, uHTS (AID 1578); assay type: functional; conditions: Homo sapiens

T1 sequence (P65502 whole entry): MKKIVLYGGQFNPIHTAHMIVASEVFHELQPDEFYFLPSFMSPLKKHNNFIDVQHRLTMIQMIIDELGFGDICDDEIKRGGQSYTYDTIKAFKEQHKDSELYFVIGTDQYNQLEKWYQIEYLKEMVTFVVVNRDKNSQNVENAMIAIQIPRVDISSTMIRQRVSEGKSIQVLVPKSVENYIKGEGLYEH

Structure (SMILES) | IC50 [1] | IC50 [2] | AC50 (Caspase-8) | IC50 [3] | IC50 [4] | IC50 (HEK293 [5]) | IC50 (HEK293 [6]) | AC50 (Caspase-6) | IC50 [7] | IC50 [8] | IC50 [9] | IC50 [10] | IC50 [11] | EC50 [12] | IC50 [13] | IC50 (HEK293 [14]) | EC50 (HEK293 [15])
Cc1ccc(-c2cc(C(=O)Nc3ccc(S(=O)(=O)Nc4onc(C)c4C)cc3)c3ccccc3n2)cc1 | 20.1 µM (active) | 5.56 µM (active) |  |  |  |  |  |  |  |  |  |  |  |  |  |  | 
Cc1c(CCC(=O)O)c(=O)oc2c(C)c(OCc3ccccc3Cl)ccc12 |  |  | > 70 µM (inactive) | 1.55 µM (active) | 4.25 µM (active) | 9.68 µM (active) | > 20 µM (inactive) | 1.38 µM (active) | 9.18 µM (active) | 6.36 µM (active) | 1.99 µM (active) | > 66.6 µM (inactive) | 2.94 µM (active) | 2.94 µM (active) | 1.56 µM (active) | > 20 µM (inactive) | > 20 µM (inactive)
